# Reference: ChEMBL document CHEMBL2202954, “The effect of PLC-γ2 inhibitors on the growth of human tumour cells” (2012)
# Legend:
# Format in all cases: functional
# IGROV-1 = experiment: Cytotoxicity against human IGROV1 cells assessed as cellular growth at 10 uM by SRB assay
# RXF 393 = experiment: Cytotoxicity against human RXF393 cells assessed as cellular growth at 10 uM by SRB assay
# Malme-3M = experiment: Cytotoxicity against human MALME-3M cells assessed as cellular growth at 10 uM by SRB assay
# SNB-19 = experiment: Cytotoxicity against human SNB19 cells assessed as cellular growth at 10 uM by SRB assay
# MDA-MB-468 = experiment: Cytotoxicity against human MDA-MB-468 cells assessed as cellular growth at 10 uM by SRB assay
# SNB-75 = experiment: Cytotoxicity against human SNB75 cells assessed as cellular growth at 10 uM by SRB assay
# HCT-116 = experiment: Cytotoxicity against human HCT116 cells assessed as cellular growth at 10 uM by SRB assay
# A549 = experiment: Cytotoxicity against human A549 cells assessed as cellular growth at 10 uM by SRB assay
# [1] = Cytotoxicity against human NCI-ADR-RES cells assessed as cellular growth at 10 uM by SRB assay
# MCF7 = experiment: Cytotoxicity against human MCF7 cells assessed as cellular growth at 10 uM by SRB assay
# SF-268 = experiment: Cytotoxicity against human SF268 cells assessed as cellular growth at 10 uM by SRB assay
# SN12C = experiment: Cytotoxicity against human SN12C cells assessed as cellular growth at 10 uM by SRB assay
# HL-60(TB) = experiment: Cytotoxicity against human HL-60(TB) cells assessed as cellular growth at 10 uM by SRB assay
# NCI-H460 = experiment: Cytotoxicity against human NCI-H460 cells assessed as cellular growth at 10 uM by SRB assay
# CCRF-CEM = experiment: Cytotoxicity against human CCRF-CEM cells assessed as cellular growth at 10 uM by SRB assay
# M14 = experiment: Cytotoxicity against human M14 cells assessed as cellular growth at 10 uM by SRB assay
# NCI-H522 = experiment: Cytotoxicity against human NCI-H522 cells assessed as cellular growth at 10 uM by SRB assay
# A498 = experiment: Cytotoxicity against human A498 cells assessed as cellular growth at 10 uM by SRB assay
# U-251 = experiment: Cytotoxicity against human U251 cells assessed as cellular growth at 10 uM by SRB assay
# UACC-257 = experiment: Cytotoxicity against human UACC257 cells assessed as cellular growth at 10 uM by SRB assay
# HOP-62 = experiment: Cytotoxicity against human HOP62 cells assessed as cellular growth at 10 uM by SRB assay
# T47D = experiment: Cytotoxicity against human T47D cells assessed as cellular growth at 10 uM by SRB assay
# SK-MEL-28 = experiment: Cytotoxicity against human SK-MEL-28 cells assessed as cellular growth at 10 uM by SRB assay
# CAKI-1 = experiment: Cytotoxicity against human Caki1 cells assessed as cellular growth at 10 uM by SRB assay
# HCC 2998 = experiment: Cytotoxicity against human HCC2998 cells assessed as cellular growth at 10 uM by SRB assay
# ACHN = experiment: Cytotoxicity against human ACHN cells assessed as cellular growth at 10 uM by SRB assay
# SW-620 = experiment: Cytotoxicity against human SW620 cells assessed as cellular growth at 10 uM by SRB assay
# SK-OV-3 = experiment: Cytotoxicity against human SKOV3 cells assessed as cellular growth at 10 uM by SRB assay
# OVCAR-5 = experiment: Cytotoxicity against human OVCAR5 cells assessed as cellular growth at 10 uM by SRB assay
# NCI-H322M = experiment: Cytotoxicity against human NCI-H322M cells assessed as cellular growth at 10 uM by SRB assay
# OVCAR-3 = experiment: Cytotoxicity against human OVCAR3 cells assessed as cellular growth at 10 uM by SRB assay
# K562 = experiment: Cytotoxicity against human K562 cells assessed as cellular growth at 10 uM by SRB assay
# SR = experiment: Cytotoxicity against human SR cells assessed as cellular growth at 10 uM by SRB assay
# COLO 205 = experiment: Cytotoxicity against human COLO205 cells assessed as cellular growth at 10 uM by SRB assay
# MOLT-4 = experiment: Cytotoxicity against human MOLT4 cells assessed as cellular growth at 10 uM by SRB assay
# HOP-92 = experiment: Cytotoxicity against human HOP92 cells assessed as cellular growth at 10 uM by SRB assay
# TK-10 = experiment: Cytotoxicity against human TK10 cells assessed as cellular growth at 10 uM by SRB assay
# LOX IMVI = experiment: Cytotoxicity against human LOXIMVI cells assessed as cellular growth at 10 uM by SRB assay
# Hs-578T = experiment: Cytotoxicity against human Hs578T cells assessed as cellular growth at 10 uM by SRB assay
# PC-3 = experiment: Cytotoxicity against human PC3 cells assessed as cellular growth at 10 uM by SRB assay
# DU-145 = experiment: Cytotoxicity against human DU145 cells assessed as cellular growth at 10 uM by SRB assay
# MDA-MB-231 = experiment: Cytotoxicity against human MDA-MB-231 cells assessed as cellular growth at 10 uM by SRB assay
# BT-549 = experiment: Cytotoxicity against human BT549 cells assessed as cellular growth at 10 uM by SRB assay
# KM12 = experiment: Cytotoxicity against human KM12 cells assessed as cellular growth at 10 uM by SRB assay
# SK-MEL-2 = experiment: Cytotoxicity against human SK-MEL-2 cells assessed as cellular growth at 10 uM by SRB assay
# UACC-62 = experiment: Cytotoxicity against human UACC62 cells assessed as cellular growth at 10 uM by SRB assay
# OVCAR-8 = experiment: Cytotoxicity against human OVCAR8 cells assessed as cellular growth at 10 uM by SRB assay
# HT-29 = experiment: Cytotoxicity against human HT-29 cells assessed as cellular growth at 10 uM by SRB assay
# SF-539 = experiment: Cytotoxicity against human SF539 cells assessed as cellular growth at 10 uM by SRB assay
# 786-0 = experiment: Cytotoxicity against human 786-0 cells assessed as cellular growth at 10 uM by SRB assay
# EKVX = experiment: Cytotoxicity against human EKVX cells assessed as cellular growth at 10 uM by SRB assay
# MDA-MB-435 = experiment: Cytotoxicity against human MDA-MB-435 cells assessed as cellular growth at 10 uM by SRB assay
# UO-31 = experiment: Cytotoxicity against human UO31 cells assessed as cellular growth at 10 uM by SRB assay
# RPMI-8226 = experiment: Cytotoxicity against human RPMI8226 cells assessed as cellular growth at 10 uM by SRB assay
# NCI-H226 = experiment: Cytotoxicity against human NCI-H226 cells assessed as cellular growth at 10 uM by SRB assay
# SK-MEL-5 = experiment: Cytotoxicity against human SK-MEL-5 cells assessed as cellular growth at 10 uM by SRB assay
# HCT-15 = experiment: Cytotoxicity against human HCT15 cells assessed as cellular growth at 10 uM by SRB assay
# NCI-H23 = experiment: Cytotoxicity against human NCI-H23 cells assessed as cellular growth at 10 uM by SRB assay
# OVCAR-4 = experiment: Cytotoxicity against human OVCAR4 cells assessed as cellular growth at 10 uM by SRB assay
structure (smiles),measurement,setting,value
CC1(C)CCc2cc(-c3ccn(S(=O)(=O)c4ccccc4Cl)n3)ccc2O1,Activity,IGROV-1,113.61%
same,Activity,RXF 393,93.11%
same,Activity,Malme-3M,98.68%
same,Activity,SNB-19,88.07%
same,Activity,MDA-MB-468,63.67%
same,Activity,SNB-75,99.11%
same,Activity,HCT-116,68.63%
same,Activity,A549,80.53%
same,Activity,[1],78.37%
same,Activity,MCF7,73.21%
same,Activity,SF-268,96.38%
same,Activity,SN12C,75.88%
same,Activity,HL-60(TB),81.19%
same,Activity,NCI-H460,79.3%
same,Activity,CCRF-CEM,59.83%
same,Activity,M14,78.84%
same,Activity,NCI-H522,77.85%
same,Activity,A498,71.86%
same,Activity,U-251,67.67%
same,Activity,UACC-257,99.38%
same,Activity,HOP-62,96.86%
same,Activity,T47D,58.8%
same,Activity,SK-MEL-28,99.8%
same,Activity,CAKI-1,101.05%
same,Activity,HCC 2998,81.67%
same,Activity,ACHN,98.39%
same,Activity,SW-620,79.15%
same,Activity,SK-OV-3,91.9%
same,Activity,OVCAR-5,92.37%
same,Activity,NCI-H322M,126.42%
same,Activity,OVCAR-3,93.06%
same,Activity,K562,43%
same,Activity,SR,72.9%
same,Activity,COLO 205,88.88%
same,Activity,MOLT-4,64.66%
same,Activity,HOP-92,49.12%
same,Activity,TK-10,74.57%
same,Activity,LOX IMVI,83.91%
same,Activity,Hs-578T,102.19%
same,Activity,PC-3,70.67%
same,Activity,DU-145,93.97%
same,Activity,MDA-MB-231,99.59%
same,Activity,BT-549,99.65%
same,Activity,KM12,62.1%
same,Activity,SK-MEL-2,102.25%
same,Activity,UACC-62,81.14%
same,Activity,OVCAR-8,89.74%
same,Activity,HT-29,33.37%
same,Activity,SF-539,87.92%
same,Activity,786-0,71.72%
same,Activity,EKVX,67.03%
same,Activity,MDA-MB-435,98.73%
same,Activity,UO-31,90.06%
same,Activity,RPMI-8226,70.97%
same,Activity,NCI-H226,90.58%
same,Activity,SK-MEL-5,75.14%
same,Activity,HCT-15,46.19%
same,Activity,NCI-H23,76.98%
Nc1c(C(=O)NCc2ccccc2)sc2nc3c(cc12)C(=O)CCC3,Activity,OVCAR-4,117.19%
same,Activity,IGROV-1,124.94%
same,Activity,RXF 393,122.76%
same,Activity,Malme-3M,139.75%
same,Activity,SNB-19,117.75%
same,Activity,MDA-MB-468,116.37%
same,Activity,SNB-75,113.06%
same,Activity,HCT-116,108.9%
same,Activity,A549,103.07%
same,Activity,[1],100.02%
same,Activity,MCF7,110.54%
same,Activity,SF-268,112.13%
same,Activity,SN12C,101.11%
same,Activity,HL-60(TB),119.79%
same,Activity,NCI-H460,101.03%
same,Activity,CCRF-CEM,102.77%
same,Activity,M14,113.61%
same,Activity,NCI-H522,109.84%
same,Activity,A498,100.49%
same,Activity,U-251,99.51%
same,Activity,UACC-257,106.3%
same,Activity,HOP-62,115.1%
same,Activity,T47D,106.44%
same,Activity,SK-MEL-28,118.31%
same,Activity,HCC 2998,107.63%
same,Activity,ACHN,112.59%
same,Activity,SW-620,105.63%
same,Activity,SK-OV-3,111.91%
same,Activity,OVCAR-5,113.08%
same,Activity,NCI-H322M,123.15%
same,Activity,OVCAR-3,115.33%
same,Activity,K562,111.11%
same,Activity,SR,116.81%
same,Activity,COLO 205,133.04%
same,Activity,MOLT-4,119.87%
same,Activity,HOP-92,79.65%
same,Activity,TK-10,115.8%
same,Activity,LOX IMVI,103.06%
same,Activity,Hs-578T,122.77%
same,Activity,PC-3,106.49%
same,Activity,DU-145,127.66%
same,Activity,MDA-MB-231,111.36%
same,Activity,BT-549,120.38%
same,Activity,KM12,106.46%
same,Activity,SK-MEL-2,121.61%
same,Activity,UACC-62,115.69%
same,Activity,OVCAR-8,114.43%
same,Activity,HT-29,116.55%
same,Activity,SF-539,105.28%
same,Activity,786-0,110.1%
same,Activity,UO-31,109.24%
same,Activity,RPMI-8226,109.76%
same,Activity,NCI-H226,106.37%
same,Activity,SK-MEL-5,100.24%
same,Activity,HCT-15,105.31%
same,Activity,NCI-H23,106.63%
